Assay results reported in patent US9723834B2, “Composition containing a pyripyropene insecticide and a base” (BASF SE, priority 2010, dated 2017).

Experiments:
[1] = Storage stability of emulsion concentrates at 65° C. (chemical assay before and after storage); type: physicochemical; conditions: emulsion concentrate with addition of Stabilizer A, storage at 65° C. up to 2 weeks
Description: The present invention further relates to a use of the base for increasing the stability of the pesticide of formulae I or II. The stability of the pesticide may be analyzed storage for 14 days at 65° C. An increase of the stability of the pesticide may be identified by analyzing the chemical recovery after said storage.
Finally, all samples of the emulsion concentrates were stored at 65° C. up to 2 weeks, and chemical assay was determined before and after storage. The chemical stability results as well as initial formulation pH (measured at 1% formulation dilution in water at room temperature) were listed in Table 1.

[2] = tested on: larvae of Helicoverpa zea; conditions: Applied and Environmental Microbiology (1995), 61(12), 4429-35; cited from earlier work
[3] = tested on: Plutella xylostella L larvae; conditions: WO 2004/060065; cited from earlier work
Tenebrio molitor L = conditions: WO 2004/060065; cited from earlier work

SMILES	chemical stability of Insecticide A [1]	insecticidal activity against larvae of Helicoverpa zea [2]	insecticidal activity against Plutella xylostella L larvae [3]	insecticidal activity against Tenebrio molitor L (Tenebrio molitor L)
C[C@]1(COC(=O)C2CC2)[C@@H]2C[C@H](O)[C@@]3(C)Oc4cc(-c5cccnc5)oc(=O)c4[C@H](O)[C@@H]3[C@@]2(C)CC[C@@H]1OC(=O)C1CC1 [Insecticide A]	dramatically improved	–	–	–
CC(=O)OC[C@@]1(C)[C@@H]2C[C@H](OC(C)=O)[C@@]3(C)Oc4cc(-c5cccnc5)oc(=O)c4[C@H](O)[C@@H]3[C@@]2(C)CC[C@@H]1OC(C)=O [Insecticide B, Pyripyropene A]	–	has insecticidal activity	has insecticidal activity	has insecticidal activity
